Experiment [1] addresses T1, AMPK protein (recombinant α1β1γ2) (Homo sapiens, UniProt Q13131+Q9Y478).
T1 construct: made in house; host or cells: E. coli
Briefly: AMPK enzymatic activity (Delfia, AMARA peptide substrate). Format: biochemical. The conditions noted are these: compound 30 μM vs AMP 30 μM; 125 μM ATP; ratio 90% or higher = direct activator. The procedure, abridged:
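Human α1β1γ2 AMPK expressed in E. coli, reactivated in vitro by LKB1, assayed in 50 mM Hepes pH 7.4 with 125 μM ATP and AMARA peptide for 30 min at room temperature; phosphorylation detected by Delfia anti-phosphoserine antibody. Activity = % of basal control at 30 μM compound relative to that of 30 μM AMP.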

Another experiment relates to H-2 Kb cells. Briefly: Glucose uptake in H-2 Kb cells (in vitro cellular test). The conditions noted are these: H-2 Kb cells differentiated in muscle, 4 hours incubation, 2-deoxy-D-[1,2 3H] glucose uptake 10 min. The format is cell-based, mouse. Here is the method:
Glucose Uptake in H-2 Kb Cells (In Vitro Cellular Test)
The following cellular test allows the determination of the effect of AMPK activators such as compounds of formula (I) onto glucose uptake in a muscle cellular model.
H-1-2 Kb cells derived from heterozygous H-2 Kb tsA58 transgenic mouse were grown in 24-well in plates coated with matrigel and were cultured at 33° C. for 4 days under permissive conditions, as described previously by Fryer et al. (Diabetes 49 (12): 1978, 2000).
For differentiation in muscle, cells were switched to non-permissive culture conditions (37° C. in the absence of interferon-γ). After 3 days, cells were incubated for 4 hours in DMEM 1 g/l glucose culture medium containing different concentrations of the tested molecules. Then glucose uptake was measured by incubating the cells for 10 min with radiolabelled 2-deoxy-D-[1,2 ^3H] glucose. Glucose uptake was terminated by rapidly washing the plates 2 times with ice-cold NaCl 0.9%. The cells were then solubilized in 0.1N NaOH for 30 min. Radioactivity was determined by liquid scintillation counting.
N°: Number of the molecule
Activity (table III): Concentration of compound (I) for a glucose uptake equal or higher to glucose uptake induced by insulin (170 nM)
^++ or **concentration of compound (I) ≦10 micro Molar
^+ or *concentration of compound (I) >10 micro Molar

Each structure is given as a SMILES string.

T1 sequence (Q13131 whole entry): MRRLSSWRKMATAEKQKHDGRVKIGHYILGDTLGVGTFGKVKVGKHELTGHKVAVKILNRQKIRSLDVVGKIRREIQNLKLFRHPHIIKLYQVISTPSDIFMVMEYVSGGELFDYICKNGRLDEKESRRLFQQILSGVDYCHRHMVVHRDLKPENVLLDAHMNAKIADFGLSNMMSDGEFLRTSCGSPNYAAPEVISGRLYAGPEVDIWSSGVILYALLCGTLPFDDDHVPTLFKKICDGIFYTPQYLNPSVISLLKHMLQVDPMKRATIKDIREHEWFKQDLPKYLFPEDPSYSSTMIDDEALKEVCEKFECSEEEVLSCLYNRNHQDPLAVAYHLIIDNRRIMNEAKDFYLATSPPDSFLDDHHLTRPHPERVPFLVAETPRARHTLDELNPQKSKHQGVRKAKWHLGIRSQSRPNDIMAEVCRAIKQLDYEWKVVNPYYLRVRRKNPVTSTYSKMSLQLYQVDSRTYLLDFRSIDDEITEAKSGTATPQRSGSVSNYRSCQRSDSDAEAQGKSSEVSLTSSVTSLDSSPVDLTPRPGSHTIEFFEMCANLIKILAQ
T1 sequence (Q9Y478 whole entry): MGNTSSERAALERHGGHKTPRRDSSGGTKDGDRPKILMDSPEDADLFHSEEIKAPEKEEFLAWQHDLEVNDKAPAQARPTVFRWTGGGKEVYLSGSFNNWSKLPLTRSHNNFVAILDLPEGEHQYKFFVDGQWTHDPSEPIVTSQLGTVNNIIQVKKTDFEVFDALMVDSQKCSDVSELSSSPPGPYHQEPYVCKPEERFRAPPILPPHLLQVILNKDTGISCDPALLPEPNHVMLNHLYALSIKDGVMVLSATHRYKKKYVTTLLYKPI
T1 sequence (Q9UGJ0 whole entry partner): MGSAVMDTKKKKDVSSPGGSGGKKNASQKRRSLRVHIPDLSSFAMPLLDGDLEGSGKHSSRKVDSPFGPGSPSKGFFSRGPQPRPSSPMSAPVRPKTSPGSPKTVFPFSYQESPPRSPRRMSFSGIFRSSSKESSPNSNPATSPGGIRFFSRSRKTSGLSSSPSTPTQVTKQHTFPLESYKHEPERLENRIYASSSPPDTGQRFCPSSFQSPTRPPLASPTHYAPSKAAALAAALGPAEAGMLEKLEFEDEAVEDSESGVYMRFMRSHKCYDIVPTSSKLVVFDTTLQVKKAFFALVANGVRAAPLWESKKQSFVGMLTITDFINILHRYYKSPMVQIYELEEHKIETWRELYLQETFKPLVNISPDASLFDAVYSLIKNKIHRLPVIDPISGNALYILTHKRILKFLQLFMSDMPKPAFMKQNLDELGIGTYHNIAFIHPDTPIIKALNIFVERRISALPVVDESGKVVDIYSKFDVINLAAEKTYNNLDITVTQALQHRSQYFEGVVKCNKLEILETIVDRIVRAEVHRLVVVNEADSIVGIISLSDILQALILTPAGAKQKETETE

Take `O=c1[nH]c2sc(Cl)c(-c3ccc(F)cc3O)c2c(O)c1-c1ccccc1` [Compound 111]: the “activity: Ratio between the % of control (basal activity) of compound of formula (I) at 30 μM and the % of control (basal activity) of AMP at 30 μM” value (shortened to “activity: Ratio between the % of control”) in experiment [1] was 136%. The “Activity (table III): Concentration of compound (I) for a glucose uptake equal or higher to glucose uptake induced by insulin (170 nM)” value (“Activity (table III): Concentration” below) in the experiment with H-2 Kb cells is listed as “* (^+ or *concentration of compound (I) >10 micro Molar)”.
The matching figures for `CCc1ccc(-c2c(Cl)sc3[nH]c(=O)c(-c4ccccc4)c(O)c23)c(O)c1` [Compound 209]: 297% and “++ (^++ or **concentration of compound (I) ≦10 micro Molar)”.
The matching figures for `Cc1ccc(-c2c(O)c3c(-c4ccc5ccccc5c4O)c(Cl)sc3[nH]c2=O)cc1` [Compound 186]: 192% and “++ (^++ or **concentration of compound (I) ≦10 micro Molar)”.
As for `Cc1cc(O)c(-c2c(Cl)sc3[nH]c(=O)c(-c4ccccc4)c(O)c23)cc1C` [Compound 207], in experiment [1], the “activity: Ratio between the % of control” value amounted to 213%. In addition, the “Activity (table III): Concentration” value in the experiment on H-2 Kb cells is “+ (^+ or *concentration of compound (I) >10 micro Molar)”.
The matching figures for `COc1ccc(-c2c(Cl)sc3[nH]c(=O)c(-c4cccc(C#N)c4)c(O)c23)cc1` [Compound 129]: 102% and “** (^++ or **concentration of compound (I) ≦10 micro Molar)”.
The matching figures for `O=c1[nH]c2sc(Cl)c(-c3ccccc3)c2c(O)c1-c1ccsc1` [Compound 169]: 196% and “++ (^++ or **concentration of compound (I) ≦10 micro Molar)”.
The matching figures for `Cc1ccc(-c2c(F)sc3[nH]c(=O)c(-c4ccc(F)cc4)c(O)c23)c(O)c1F` [Compound 211]: 149% and “+ (^+ or *concentration of compound (I) >10 micro Molar)”.
Consider `Cc1ccc(-c2csc3[nH]c(=O)c(-c4ccc(F)cc4)c(O)c23)c(O)c1F` [Compound 204], for which, in experiment [1], the “activity: Ratio between the % of control” value is 189%. Moreover, the “Activity (table III): Concentration” value in the experiment with H-2 Kb cells is recorded as “+ (^+ or *concentration of compound (I) >10 micro Molar)”.
The matching figures for `Cc1ccc(-c2c(Cl)sc3[nH]c(=O)c(-c4ccccc4)c(O)c23)c(O)c1C` [Compound 202]: 305% and “++ (^++ or **concentration of compound (I) ≦10 micro Molar)”.
For `O=c1[nH]c2sc(Cl)c(-c3ccccc3)c2c(O)c1-c1ccc(O)cc1` [Compound 156], the “activity: Ratio between the % of control” value in experiment [1] is reported as 95%. The “Activity (table III): Concentration” value in the experiment on H-2 Kb cells was “** (^++ or **concentration of compound (I) ≦10 micro Molar)”.
With `O=c1[nH]c2sc(Cl)c(-c3ccccc3)c2c(O)c1-c1cccs1` [Compound 168], the “activity: Ratio between the % of control” value in experiment [1] came out at 174%. Moreover, the “Activity (table III): Concentration” value in the experiment with H-2 Kb cells is reported as “++ (^++ or **concentration of compound (I) ≦10 micro Molar)”.
As for `COc1ccc(F)cc1-c1c(Cl)sc2[nH]c(=O)c(-c3ccccc3)c(O)c12` [Compound 189], in experiment [1], the “activity: Ratio between the % of control” value was found to be 175%. Besides, the “Activity (table III): Concentration” value in the experiment with H-2 Kb cells is “+ (^+ or *concentration of compound (I) >10 micro Molar)”.
The matching figures for `Cc1cccc(-c2c(Cl)sc3[nH]c(=O)c(-c4ccccc4)c(O)c23)c1` [Compound 125]: 101% and “** (^++ or **concentration of compound (I) ≦10 micro Molar)”.
The matching figures for `COc1ccc(-c2c(Cl)sc3[nH]c(=O)c(-c4ccccc4)c(O)c23)cc1` [Compound 139]: 114% and “** (^++ or **concentration of compound (I) ≦10 micro Molar)”.
The matching figures for `COc1cc(F)ccc1-c1c(Cl)sc2[nH]c(=O)c(-c3ccccc3)c(O)c12` [Compound 187]: 124% and “+ (^+ or *concentration of compound (I) >10 micro Molar)”.
For `COc1ccc(-c2c(Cl)sc3[nH]c(=O)c(-c4ccccc4)c(O)c23)cc1OC` [Compound 190], in experiment [1], the “activity: Ratio between the % of control” value was 256%. The “Activity (table III): Concentration” value with H-2 Kb cells is listed as “+ (^+ or *concentration of compound (I) >10 micro Molar)”.
The matching figures for `CCOc1cccc(-c2c(Cl)sc3[nH]c(=O)c(-c4ccccc4)c(O)c23)c1` [Compound 127]: 122% and “* (^+ or *concentration of compound (I) >10 micro Molar)”.
The matching figures for `Cc1ccc(-c2c(Cl)sc3[nH]c(=O)c(-c4ccc(F)cc4)c(O)c23)c(O)c1F` [Compound 206]: 184% and “+ (^+ or *concentration of compound (I) >10 micro Molar)”.
Take `O=c1[nH]c2scc(-c3ccc4ccccc4c3O)c2c(O)c1-c1ccccc1` [Compound 34]: the “activity: Ratio between the % of control” value in experiment [1] is given as 625%. In the experiment on H-2 Kb cells, the “Activity (table III): Concentration” value is “* (^+ or *concentration of compound (I) >10 micro Molar)”.
The matching figures for `Cc1ccc(-c2csc3[nH]c(=O)c(-c4ccccc4)c(O)c23)cc1` [Compound 35]: 126% and “** (^++ or **concentration of compound (I) ≦10 micro Molar)”.
The matching figures for `Cc1ccccc1-c1c(O)c2c(-c3ccccc3)c(Cl)sc2[nH]c1=O` [Compound 164]: 354% and “+ (^+ or *concentration of compound (I) >10 micro Molar)”.
`CN(C)c1ccc(-c2c(O)c3c(-c4ccccc4)csc3[nH]c2=O)cc1` [Compound 22]: the “activity: Ratio between the % of control” value in experiment [1] is 121%. In addition, the “Activity (table III): Concentration” value with H-2 Kb cells is “** (^++ or **concentration of compound (I) ≦10 micro Molar)”.
The matching figures for `Cc1sc2[nH]c(=O)c(-c3ccc(O)cc3)c(O)c2c1-c1ccccc1` [Compound 14]: 116% and “* (^+ or *concentration of compound (I) >10 micro Molar)”.
The matching figures for `COc1cccc(-c2c(Cl)sc3[nH]c(=O)c(-c4ccccc4)c(O)c23)c1` [Compound 128]: 181% and “* (^+ or *concentration of compound (I) >10 micro Molar)”.
The matching figures for `COc1cccc(-c2c(O)c3c(-c4ccccc4)csc3[nH]c2=O)c1` [Compound 23]: 202% and “* (^+ or *concentration of compound (I) >10 micro Molar)”.
With `O=c1[nH]c2sc(Cl)c(-c3ccc(F)cc3O)c2c(O)c1-c1ccc(F)cc1` [Compound 213], the “activity: Ratio between the % of control” value in experiment [1] was 349%. Also, the “Activity (table III): Concentration” value in the experiment with H-2 Kb cells was “+ (^+ or *concentration of compound (I) >10 micro Molar)”.
